Several values for one entry are separate records, joined by “and”; a condition that tells them apart may be missing. Equal entries are not always repeated.
Tests used:
Assay in all cases: radiometric filter-binding kinase assay, Kinase HotSpot
Conditions in all cases: compound 0.5 µM; ATP 10 µM
[1] = biological target: CSK (human) (UniProt P41240)
[2] = biological target: AURKA (human) (UniProt O14965)
[3] = biological target: TLK2 (human) (UniProt Q86UE8)
[4] = biological target: GRK7 (human) (UniProt Q8WTQ7)
[5] = biological target: TYRO3 (human) (UniProt Q06418)
[6] = biological target: SRC (human) (UniProt P12931)
[7] = biological target: RPS6KA2 KD1 KD2 (human) (UniProt Q15349)
[8] = biological target: DYRK2 (human) (UniProt Q92630)
[9] = biological target: NEK3 (human) (UniProt P51956)
[10] = biological target: JAK3 JH1 JH2 (human) (UniProt P52333)
[11] = biological target: DAPK3 (human) (UniProt O43293)
[12] = biological target: PNCK (human) (UniProt Q6P2M8)
[13] = biological target: DMPK (human) (UniProt Q09013)
[14] = biological target: MLTK (human) (UniProt Q9NYL2)
[15] = biological target: CSNK2A1 (human) (UniProt P68400)
[16] = biological target: MARK2 (human) (UniProt Q7KZI7)
[17] = biological target: LYN (human) (UniProt P07948)
[18] = biological target: ULK3 (human) (UniProt Q6PHR2)
[19] = biological target: STK3 (human) (UniProt Q13188)
[20] = biological target: SGK2 (human) (UniProt Q9HBY8)
[21] = biological target: PKN1 (human) (UniProt Q16512)
[22] = biological target: GRK4 (human) (UniProt P32298)
[23] = biological target: MST1R (human) (UniProt Q04912)
[24] = biological target: FGFR2 (human) (UniProt P21802)
[25] = biological target: EPHA5 (human) (UniProt P54756)
[26] = biological target: MAPK12 (human) (UniProt P53778)
[27] = biological target: MYLK (human) (UniProt Q15746)
[28] = biological target: EPHB4 (human) (UniProt P54760)
[29] = biological target: GSK3B (human) (UniProt P49841)
[30] = biological target: HIPK1 (human) (UniProt Q86Z02)
[31] = biological target: PLK1 (human) (UniProt P53350)
[32] = biological target: IRAK4 (human) (UniProt Q9NWZ3)
[33] = biological target: BTK (human) (UniProt Q06187)
[34] = biological target: CHEK2 (human) (UniProt O96017)
[35] = biological target: MAP3K8 (human) (UniProt P41279)
[36] = biological target: RPS6KA4 KD2 (human) (UniProt O75676)
[37] = biological target: FGFR4 (human) (UniProt P22455)
[38] = biological target: BMX (human) (UniProt P51813)
[39] = biological target: PRKG1 (human) (UniProt Q13976)
[40] = biological target: FER (human) (UniProt P16591)
[41] = biological target: STK10 (human) (UniProt O94804)
[42] = biological target: CDK6 CCND3 (human) (UniProt P30281+Q00534)

Sequence of MAP3K8 (human) (P41279 whole entry, looked up): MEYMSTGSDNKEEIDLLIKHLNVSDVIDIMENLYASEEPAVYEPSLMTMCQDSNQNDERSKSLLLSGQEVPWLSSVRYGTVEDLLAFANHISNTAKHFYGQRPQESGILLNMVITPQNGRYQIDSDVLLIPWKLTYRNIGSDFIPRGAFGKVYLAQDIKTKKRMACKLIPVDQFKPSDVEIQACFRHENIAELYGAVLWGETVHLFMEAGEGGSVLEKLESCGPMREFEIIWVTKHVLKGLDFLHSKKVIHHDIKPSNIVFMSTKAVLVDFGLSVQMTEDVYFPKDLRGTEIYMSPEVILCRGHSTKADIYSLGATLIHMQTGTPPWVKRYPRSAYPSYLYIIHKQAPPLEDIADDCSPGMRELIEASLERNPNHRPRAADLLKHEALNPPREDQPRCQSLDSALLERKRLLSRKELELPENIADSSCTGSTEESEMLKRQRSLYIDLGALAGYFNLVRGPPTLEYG
Sequence of HIPK1 (human) (Q86Z02 whole entry, looked up): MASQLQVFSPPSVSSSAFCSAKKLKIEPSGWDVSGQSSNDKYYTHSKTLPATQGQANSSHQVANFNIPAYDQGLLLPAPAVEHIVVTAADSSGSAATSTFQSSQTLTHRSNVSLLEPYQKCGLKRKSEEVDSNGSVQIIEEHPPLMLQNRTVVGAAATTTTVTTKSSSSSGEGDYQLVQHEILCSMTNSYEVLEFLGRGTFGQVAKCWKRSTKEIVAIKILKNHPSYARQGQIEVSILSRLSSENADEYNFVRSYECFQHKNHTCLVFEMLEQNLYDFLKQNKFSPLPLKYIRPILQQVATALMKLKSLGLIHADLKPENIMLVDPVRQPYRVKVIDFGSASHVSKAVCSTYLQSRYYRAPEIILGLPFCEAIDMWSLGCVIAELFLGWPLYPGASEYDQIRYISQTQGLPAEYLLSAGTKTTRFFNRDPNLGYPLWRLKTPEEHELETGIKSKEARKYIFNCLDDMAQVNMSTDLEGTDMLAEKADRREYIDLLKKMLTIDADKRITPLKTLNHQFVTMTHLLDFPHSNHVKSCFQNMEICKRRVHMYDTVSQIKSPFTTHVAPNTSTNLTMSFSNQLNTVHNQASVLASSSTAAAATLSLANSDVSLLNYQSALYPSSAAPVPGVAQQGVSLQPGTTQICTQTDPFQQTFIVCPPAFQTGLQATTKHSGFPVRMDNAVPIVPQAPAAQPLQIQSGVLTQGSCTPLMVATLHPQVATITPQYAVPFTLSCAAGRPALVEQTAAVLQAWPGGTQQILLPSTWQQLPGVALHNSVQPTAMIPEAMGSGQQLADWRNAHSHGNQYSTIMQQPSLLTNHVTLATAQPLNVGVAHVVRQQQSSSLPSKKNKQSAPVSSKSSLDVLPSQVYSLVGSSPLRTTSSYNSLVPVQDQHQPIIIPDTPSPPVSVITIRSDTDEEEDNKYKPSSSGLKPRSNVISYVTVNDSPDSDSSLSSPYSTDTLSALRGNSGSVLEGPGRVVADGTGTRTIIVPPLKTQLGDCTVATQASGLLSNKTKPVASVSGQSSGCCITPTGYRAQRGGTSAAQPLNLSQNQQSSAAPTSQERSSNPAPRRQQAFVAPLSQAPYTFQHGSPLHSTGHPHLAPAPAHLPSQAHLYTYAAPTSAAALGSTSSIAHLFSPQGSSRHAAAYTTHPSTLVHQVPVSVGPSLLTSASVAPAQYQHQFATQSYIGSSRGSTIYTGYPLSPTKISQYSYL
Sequence of STK3 (human) (Q13188 whole entry, looked up): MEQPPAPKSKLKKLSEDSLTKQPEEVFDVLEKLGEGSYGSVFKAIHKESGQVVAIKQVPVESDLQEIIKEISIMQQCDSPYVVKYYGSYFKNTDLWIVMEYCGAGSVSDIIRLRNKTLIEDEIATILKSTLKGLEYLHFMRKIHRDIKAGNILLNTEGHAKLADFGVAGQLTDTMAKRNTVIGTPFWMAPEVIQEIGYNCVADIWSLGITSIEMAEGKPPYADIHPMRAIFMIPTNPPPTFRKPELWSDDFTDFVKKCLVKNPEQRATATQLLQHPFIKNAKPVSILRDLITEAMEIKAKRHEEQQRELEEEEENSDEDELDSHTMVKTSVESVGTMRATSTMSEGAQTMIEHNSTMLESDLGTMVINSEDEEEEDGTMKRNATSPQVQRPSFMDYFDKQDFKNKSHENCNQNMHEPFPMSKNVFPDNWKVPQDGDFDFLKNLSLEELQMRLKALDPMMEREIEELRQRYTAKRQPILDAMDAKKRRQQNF
Sequence of GRK7 (human) (Q8WTQ7 whole entry, looked up): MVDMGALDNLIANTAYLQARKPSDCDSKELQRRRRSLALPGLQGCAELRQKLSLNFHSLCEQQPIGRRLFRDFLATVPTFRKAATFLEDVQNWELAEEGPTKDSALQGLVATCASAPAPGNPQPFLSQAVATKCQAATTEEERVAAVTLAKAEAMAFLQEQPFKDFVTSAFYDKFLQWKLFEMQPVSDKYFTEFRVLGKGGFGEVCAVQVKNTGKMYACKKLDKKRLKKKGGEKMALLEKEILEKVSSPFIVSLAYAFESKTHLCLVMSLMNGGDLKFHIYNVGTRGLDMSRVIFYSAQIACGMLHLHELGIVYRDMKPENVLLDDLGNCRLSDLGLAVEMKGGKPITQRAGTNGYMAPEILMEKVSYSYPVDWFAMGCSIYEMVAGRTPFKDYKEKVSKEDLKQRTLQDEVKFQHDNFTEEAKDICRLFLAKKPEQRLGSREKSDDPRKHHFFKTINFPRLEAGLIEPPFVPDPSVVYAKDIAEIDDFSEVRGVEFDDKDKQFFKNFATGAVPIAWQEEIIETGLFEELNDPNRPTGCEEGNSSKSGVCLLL
Sequence of EPHA5 (human) (P54756 whole entry, looked up): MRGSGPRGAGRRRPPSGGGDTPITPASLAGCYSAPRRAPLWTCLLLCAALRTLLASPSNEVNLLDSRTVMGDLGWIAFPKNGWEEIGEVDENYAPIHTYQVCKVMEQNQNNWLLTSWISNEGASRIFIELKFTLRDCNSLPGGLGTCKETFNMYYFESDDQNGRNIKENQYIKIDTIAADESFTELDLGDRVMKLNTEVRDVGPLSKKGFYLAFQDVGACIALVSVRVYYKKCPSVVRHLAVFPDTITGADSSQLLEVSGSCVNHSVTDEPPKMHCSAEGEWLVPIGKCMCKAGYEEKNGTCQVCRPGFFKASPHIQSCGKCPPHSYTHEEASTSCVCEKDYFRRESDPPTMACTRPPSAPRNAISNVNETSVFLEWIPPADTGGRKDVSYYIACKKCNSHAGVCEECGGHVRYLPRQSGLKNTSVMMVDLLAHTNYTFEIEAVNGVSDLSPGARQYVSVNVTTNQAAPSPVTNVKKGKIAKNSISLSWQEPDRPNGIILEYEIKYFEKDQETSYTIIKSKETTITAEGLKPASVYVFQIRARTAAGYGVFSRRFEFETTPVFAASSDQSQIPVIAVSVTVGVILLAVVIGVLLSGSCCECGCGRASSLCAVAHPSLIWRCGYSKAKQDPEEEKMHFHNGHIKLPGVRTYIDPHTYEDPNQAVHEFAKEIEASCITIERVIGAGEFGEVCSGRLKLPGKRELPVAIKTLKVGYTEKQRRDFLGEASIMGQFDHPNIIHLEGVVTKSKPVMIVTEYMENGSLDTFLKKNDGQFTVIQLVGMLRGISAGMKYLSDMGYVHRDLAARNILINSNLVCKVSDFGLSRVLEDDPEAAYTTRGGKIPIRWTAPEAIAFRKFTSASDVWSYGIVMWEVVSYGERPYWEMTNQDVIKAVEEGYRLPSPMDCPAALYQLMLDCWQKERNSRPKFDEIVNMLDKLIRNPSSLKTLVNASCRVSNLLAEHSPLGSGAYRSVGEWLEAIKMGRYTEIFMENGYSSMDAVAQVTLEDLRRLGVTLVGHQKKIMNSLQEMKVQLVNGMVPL
Sequence of JAK3 JH1 JH2 (human) (P52333 whole entry, looked up): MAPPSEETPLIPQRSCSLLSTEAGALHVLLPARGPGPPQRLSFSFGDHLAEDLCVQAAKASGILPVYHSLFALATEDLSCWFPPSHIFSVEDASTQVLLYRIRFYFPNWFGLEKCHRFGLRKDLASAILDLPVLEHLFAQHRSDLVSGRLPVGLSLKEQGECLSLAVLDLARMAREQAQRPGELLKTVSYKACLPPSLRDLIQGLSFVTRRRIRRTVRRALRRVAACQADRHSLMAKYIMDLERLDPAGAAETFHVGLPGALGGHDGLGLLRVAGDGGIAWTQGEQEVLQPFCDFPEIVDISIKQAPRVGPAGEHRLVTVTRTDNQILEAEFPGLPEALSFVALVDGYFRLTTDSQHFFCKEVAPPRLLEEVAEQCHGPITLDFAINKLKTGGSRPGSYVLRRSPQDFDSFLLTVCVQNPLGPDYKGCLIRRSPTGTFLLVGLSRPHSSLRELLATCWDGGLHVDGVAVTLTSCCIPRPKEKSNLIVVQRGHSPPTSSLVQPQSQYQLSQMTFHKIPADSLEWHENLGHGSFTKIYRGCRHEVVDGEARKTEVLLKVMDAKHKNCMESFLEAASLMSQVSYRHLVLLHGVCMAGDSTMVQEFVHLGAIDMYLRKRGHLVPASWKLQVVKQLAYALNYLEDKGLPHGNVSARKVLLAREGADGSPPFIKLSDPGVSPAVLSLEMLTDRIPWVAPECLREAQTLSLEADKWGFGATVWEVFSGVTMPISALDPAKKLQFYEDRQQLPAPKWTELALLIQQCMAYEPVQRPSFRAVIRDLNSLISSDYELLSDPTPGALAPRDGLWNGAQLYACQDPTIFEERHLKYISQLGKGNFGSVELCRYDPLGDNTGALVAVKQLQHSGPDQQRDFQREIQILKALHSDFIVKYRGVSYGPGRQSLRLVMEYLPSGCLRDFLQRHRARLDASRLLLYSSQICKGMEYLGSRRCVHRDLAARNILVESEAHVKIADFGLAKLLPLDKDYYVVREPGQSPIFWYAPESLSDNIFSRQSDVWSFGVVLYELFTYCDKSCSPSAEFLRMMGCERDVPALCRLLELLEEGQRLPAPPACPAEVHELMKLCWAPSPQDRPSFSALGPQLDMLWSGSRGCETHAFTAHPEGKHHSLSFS

**Q.** How did the residual activity [1] turn out when `CCC(=O)Nc1ccc2ncnc(Nc3cccc(Br)c3)c2c1` was run?
**A.** 89.5%

**Q.** And the residual activity [2]?
**A.** 97.4%

**Q.** And the residual activity [3]?
**A.** 104%

**Q.** And the residual activity [4]?
**A.** 105%

**Q.** And the residual activity [5]?
**A.** 101%

**Q.** What about the residual activity [6] of the same molecule?
**A.** 93.6%

**Q.** What about the residual activity [7] of the same molecule?
**A.** 87.2%

**Q.** What about the residual activity [8] of the same molecule?
**A.** 90.6%

**Q.** And the residual activity [9]?
**A.** 99.6%

**Q.** What about the residual activity [10] of the same molecule?
**A.** 98.3%

**Q.** And the residual activity [11]?
**A.** 104%

**Q.** What about the residual activity [12] of the same molecule?
**A.** 96%

**Q.** And the residual activity [13]?
**A.** 92%

**Q.** And the residual activity [14]?
**A.** 96%

**Q.** And the residual activity [15]?
**A.** 99%

**Q.** What about the residual activity [16] of the same molecule?
**A.** 73.5%

**Q.** And the residual activity [17]?
**A.** 82.6% and 87.7%

**Q.** And the residual activity [18]?
**A.** 97.5%

**Q.** And the residual activity [19]?
**A.** 88%

**Q.** What about the residual activity [20] of the same molecule?
**A.** 96.2%

**Q.** What about the residual activity [21] of the same molecule?
**A.** 101%

**Q.** What about the residual activity [22] of the same molecule?
**A.** 96.2%

**Q.** What about the residual activity [23] of the same molecule?
**A.** 97.2%

**Q.** What about the residual activity [24] of the same molecule?
**A.** 99.8%

**Q.** What about the residual activity [25] of the same molecule?
**A.** 101%

**Q.** And the residual activity [26]?
**A.** 103%

**Q.** What about the residual activity [27] of the same molecule?
**A.** 95.5%

**Q.** What about the residual activity [28] of the same molecule?
**A.** 93.4%

**Q.** And the residual activity [29]?
**A.** 91.2%

**Q.** And the residual activity [30]?
**A.** 104%

**Q.** And the residual activity [31]?
**A.** 95.3%

**Q.** What about the residual activity [32] of the same molecule?
**A.** 79.8%

**Q.** And the residual activity [33]?
**A.** 89.4%

**Q.** What about the residual activity [34] of the same molecule?
**A.** 87.1%

**Q.** And the residual activity [35]?
**A.** 93%

**Q.** What about the residual activity [36] of the same molecule?
**A.** 106%

**Q.** What about the residual activity [37] of the same molecule?
**A.** 95.2%

**Q.** What about the residual activity [38] of the same molecule?
**A.** 98.7%

**Q.** What about the residual activity [39] of the same molecule?
**A.** 101% and 110%

**Q.** What about the residual activity [40] of the same molecule?
**A.** 95.6%

**Q.** And the residual activity [41]?
**A.** 68.7%

**Q.** And the residual activity [42]?
**A.** 94.8%

**Q.** What does the source list for `Nc1ncnc2[nH]nc(Nc3ccc(F)cc3)c12`?
**A.** residual activity [1]: 80.2%; residual activity [2]: 92.3%; residual activity [3]: 79%; residual activity [4]: 105%; residual activity [5]: 100%; residual activity [6]: 89.6%; residual activity [7]: 70.6%; residual activity [8]: 90.6%; residual activity [9]: 102%; residual activity [10]: 102%; residual activity [11]: 124%; residual activity [12]: 98.4%; residual activity [13]: 114%; residual activity [14]: 88%; residual activity [15]: 89.9%; residual activity [16]: 87%; residual activity [17]: 89.7% and 90.3%; residual activity [18]: 92.8%; residual activity [19]: 90.8%; residual activity [20]: 96.5%; residual activity [21]: 102%; residual activity [22]: 98.8%; residual activity [23]: 93.7%; residual activity [24]: 97.2%; residual activity [25]: 87%; residual activity [26]: 94.2%; residual activity [27]: 94.7%; residual activity [28]: 87.8%; residual activity [29]: 101%; residual activity [30]: 106%; residual activity [31]: 99.9%; residual activity [32]: 88.3%; residual activity [33]: 82.3%; residual activity [34]: 98.6%; residual activity [35]: 99.7%; residual activity [36]: 114%; residual activity [37]: 107%; residual activity [38]: 89.6%; residual activity [39]: 95.7% and 96.9%; residual activity [40]: 100%; residual activity [41]: 70.5%; residual activity [42]: 99.6%

**Q.** `N#C/C(=C(/N)Sc1ccc(N)cc1)c1ccccc1C(F)(F)F` was tested. Which residual activity [1] did it give?
**A.** 90.9%

**Q.** And the residual activity [2]?
**A.** 103%

**Q.** What about the residual activity [3] of the same molecule?
**A.** 92.5%

**Q.** What about the residual activity [4] of the same molecule?
**A.** 113%

**Q.** What about the residual activity [5] of the same molecule?
**A.** 110%

**Q.** And the residual activity [6]?
**A.** 94.1%

**Q.** What about the residual activity [7] of the same molecule?
**A.** 99.2%

**Q.** And the residual activity [8]?
**A.** 96.6%

**Q.** And the residual activity [9]?
**A.** 99.6%

**Q.** What about the residual activity [10] of the same molecule?
**A.** 101%

**Q.** What about the residual activity [11] of the same molecule?
**A.** 102%

**Q.** What about the residual activity [12] of the same molecule?
**A.** 98.9%

**Q.** What about the residual activity [13] of the same molecule?
**A.** 102%

**Q.** And the residual activity [14]?
**A.** 105%

**Q.** And the residual activity [15]?
**A.** 97.9%

**Q.** And the residual activity [16]?
**A.** 124%

**Q.** What about the residual activity [17] of the same molecule?
**A.** 107% and 98.5%

**Q.** And the residual activity [18]?
**A.** 106%

**Q.** What about the residual activity [19] of the same molecule?
**A.** 125%

**Q.** What about the residual activity [20] of the same molecule?
**A.** 99%

**Q.** What about the residual activity [21] of the same molecule?
**A.** 104%

**Q.** What about the residual activity [22] of the same molecule?
**A.** 98.4%

**Q.** What about the residual activity [23] of the same molecule?
**A.** 90.4%

**Q.** And the residual activity [24]?
**A.** 101%

**Q.** What about the residual activity [25] of the same molecule?
**A.** 116%

**Q.** And the residual activity [26]?
**A.** 97.4%

**Q.** And the residual activity [27]?
**A.** 94.9%

**Q.** And the residual activity [28]?
**A.** 102%

**Q.** What about the residual activity [29] of the same molecule?
**A.** 102%

**Q.** And the residual activity [30]?
**A.** 107%

**Q.** What about the residual activity [31] of the same molecule?
**A.** 92.6%

**Q.** And the residual activity [32]?
**A.** 89.8%

**Q.** And the residual activity [33]?
**A.** 93.5%

**Q.** And the residual activity [34]?
**A.** 97.7%

**Q.** And the residual activity [35]?
**A.** 96.5%

**Q.** And the residual activity [36]?
**A.** 112%

**Q.** And the residual activity [37]?
**A.** 108%

**Q.** What about the residual activity [38] of the same molecule?
**A.** 99.7%

**Q.** And the residual activity [39]?
**A.** 100% and 98.8%

**Q.** And the residual activity [40]?
**A.** 105%

**Q.** What about the residual activity [41] of the same molecule?
**A.** 88.7%

**Q.** What about the residual activity [42] of the same molecule?
**A.** 103%

Source: the kinase profiling compilation of Christmann-Franck et al. (2016)
